This test deals with HCV genotype-1a variant with glutamine 30 changed to glutamate in the NS5A protein. It is filed as cell-based. The settings on record: test compound titrated with BMS-790052 fixed at 200 nM; genotype 1a Q30E replicon. The source says:
The NS5A synergistic inhibitory effect of test compounds can be determined using various amounts of an NS5A-targeting compound with titration of a second compound of interest. […] In one embodiment, the HCV genotype strain can be genotype 1a containing a change at amino acid 30 of the NS5A protein consisting of glutamine to glutamate. The test compound can be chosen from compounds listed above or from others present in the literature.
For orientation: In antiviral work, replicon cells carry a viral genome segment that copies itself.

From patent US20160158200A1, “Combinations of Hepatitis C Virus Inhibitors” (priority 2013, published 2016) come the findings set out here.

Each structure is given as a SMILES string. Where only a bound is given, the exact number is not on record here.

As for `CC(C)(C)OC(=O)N1CCCC[C@@H]1C(=O)N[C@H](c1nc(-c2ccc(-c3ccc(-c4c[nH]c([C@@H](NC(=O)[C@H]5CCCCN5C(=O)OC(C)(C)C)C(C)(C)C)n4)cc3)cc2)c[nH]1)C(C)(C)C` [Compound L-16], the “Fold-Synergistic 1a (Q30E)” value is reported as over 100 fold.
As for `CC(C)(C)[C@H](NC(=O)C1CCC(F)(F)CC1)c1ncc(-c2ccc(-c3ccc(-c4cnc([C@@H](NC(=O)C5CCC(F)(F)CC5)C(C)(C)C)[nH]4)s3)cc2)[nH]1` [Compound B57], the figure is over 100 fold.
As for `CC(C)(C)OC(=O)N1CCC(C)(C)[C@@H]1C(=O)N[C@H](c1nc(-c2ccc(-c3ccc(-c4c[nH]c([C@@H](NC(=O)[C@@H]5N(C(=O)OC(C)(C)C)CCC5(C)C)C(C)(C)C)n4)cc3)cc2)c[nH]1)C(C)(C)C` [Compound W-211], the figure is over 100 fold; as for `CCN(CC)S(=O)(=O)NC(c1nc(-c2ccc(-c3ccc(-c4c[nH]c(C(NS(=O)(=O)N(CC)CC)C(C)(C)C)n4)cc3)cc2)c[nH]1)C(C)(C)C` [Compound L-121], over 100 fold.
The result for `CCN(CC)C(=O)C(=O)N[C@H](c1nc(-c2ccc(-c3ccc(-c4c[nH]c([C@@H](NC(=O)C(=O)N(CC)CC)C(C)(C)C)n4)cc3)cc2)c[nH]1)C(C)(C)C` [Compound W-33] reads over 100 fold; that for `CC(C)(C)[C@H](NC(=O)C12CCC(O)(CC1)CC2)c1nc(-c2ccc(-c3ccc(-c4c[nH]c([C@@H](NC(=O)C56CCC(O)(CC5)CC6)C(C)(C)C)n4)cc3)cc2)c[nH]1` [Compound W-128], over 100 fold.
Turning to `CC(C)CC(=O)N[C@H](c1ncc(-c2ccc(-c3ccc(-c4cnc([C@@H]5CCCN5C(=O)CC(C)C)[nH]4)cc3)cc2)[nH]1)C(C)C` [Compound Y-16], the “Fold-Synergistic 1a (Q30E)” value is over 10 fold.
As for `CC(C)(NC(=O)OCCF)C(=O)N[C@H](c1nc(-c2ccc(-c3ccc(-c4c[nH]c([C@@H](NC(=O)C(C)(C)NC(=O)OCCF)C(C)(C)C)n4)cc3)cc2)c[nH]1)C(C)(C)C` [Compound Q-4], the figure is over 100 fold; as for `COC(c1ccccc1)C1(C(=O)N[C@H](c2nc(-c3ccc(-c4ccc(-c5c[nH]c([C@@H](NC(=O)C6(C(OC)c7ccccc7)CC6)C(C)(C)C)n5)cc4)cc3)c[nH]2)C(C)(C)C)CC1` (single isomer, unassigned) [Compound N-137B], over 100 fold; as for `C[C@H](C(=O)N[C@H](c1nc(-c2ccc(-c3ccc(-c4c[nH]c([C@@H](NC(=O)[C@@H](C)c5ccccc5)C(C)(C)C)n4)cc3)cc2)c[nH]1)C(C)(C)C)c1ccccc1` [Compound N-60], over 100 fold.
As for `CC(C)(C)[C@H](NC(=O)c1ccncc1F)c1nc(-c2ccc(-c3ccc(-c4c[nH]c([C@@H](NC(=O)c5ccncc5F)C(C)(C)C)n4)cc3)cc2)c[nH]1` [Compound P-24], the figure is over 100 fold; as for `CC(C)(C)[C@H](NC(=O)C(=O)O)c1nc(-c2ccc(-c3ccc(-c4c[nH]c([C@@H](NC(=O)C(=O)O)C(C)(C)C)n4)cc3)cc2)c[nH]1` [Compound W-44], over 10 fold.
Consider `CC(O)(CF)C(=O)N[C@H](c1nc(-c2ccc(-c3ccc(-c4c[nH]c([C@@H](NC(=O)C(C)(O)CF)C(C)(C)C)n4)cc3)cc2)c[nH]1)C(C)(C)C` (single isomer, unassigned) [Compound N-139B], for which the “Fold-Synergistic 1a (Q30E)” value is over 100 fold.
The result for `COc1cccc2c(C(=O)N3CCC[C@H]3c3ncc(-c4ccc(-c5ccc(-c6cnc([C@@H]7CCCN7C(=O)c7nccc8c(OC)cccc78)[nH]6)cc5)cc4)[nH]3)nccc12` [Compound S-201] reads over 100 fold; that for `COc1cccc(CC(=O)N[C@H](c2ncc(-c3ccc(-c4ccc(-c5cnc([C@@H](NC(=O)Cc6cccc(OC)c6)C(C)C)[nH]5)cc4)cc3)[nH]2)C(C)C)c1` [Compound S-40], over 100 fold.
As for `CC1(C)CCN(C(=O)C(=O)N2CCC(F)(F)CC2)C1c1nc(-c2ccc(-c3ccc(-c4c[nH]c(C5N(C(=O)C(=O)N6CCC(F)(F)CC6)CCC5(C)C)n4)cc3)cc2)c[nH]1` (centres unmarked) [Compound W-222], the figure is over 100 fold.
The result for `CC(C)[C@H](NC(=O)C(C)(C)OCC(F)F)c1nc(-c2ccc(-c3ccc(-c4c[nH]c([C@@H](NC(=O)C(C)(C)OCC(F)F)C(C)C)n4)c(F)c3)cc2)c[nH]1.O=C(O)C(F)(F)F` [Compound N-91] reads over 100 fold; that for `CC(C)[C@H](NC(=O)c1cc(F)cc(F)c1)c1ncc(-c2ccc(-c3ccc(-c4cnc([C@@H](NC(=O)c5cc(F)cc(F)c5)C(C)C)[nH]4)cc3)cc2)[nH]1` [Compound Y-23], over 100 fold.
As for `CC1(C(=O)N[C@H](c2nc(-c3ccc(-c4ccc(-c5c[nH]c([C@@H](NC(=O)C6(C)CCCCC6O)C(C)(C)C)n5)cc4)cc3)c[nH]2)C(C)(C)C)CCCCC1O` (single isomer, unassigned) [Compound Y-93], the “Fold-Synergistic 1a (Q30E)” value is over 100 fold.
As for `COc1cc2ccccc2c(C(=O)N[C@H](c2ncc(-c3ccc(-c4ccc(-c5cnc([C@@H](NC(=O)c6nc(OC)cc7ccccc67)C(C)C)[nH]5)cc4)cc3)[nH]2)C(C)C)n1` [Compound Y-19], the figure is over 100 fold; as for `CC(OC(=O)NC1(C(=O)NC(c2nc(-c3ccc(-c4ccc(-c5c[nH]c(C(NC(=O)C6(NC(=O)OC(C)C(F)(F)F)CC6)C6(C)CC6)n5)cc4)cc3)c[nH]2)C2(C)CC2)CC1)C(F)(F)F` [Compound L-42], over 100 fold; as for `Cc1ccc(S(=O)(=O)NC(c2ncc(-c3ccc(-c4ccc(-c5cnc([C@@H](NS(=O)(=O)c6ccc(C)cc6)C(C)C)[nH]5)cc4)cc3)[nH]2)C(C)C)cc1` (some centres unmarked) [Compound Y-58], over 100 fold.
Turning to `CC(C)(C)[C@H](NC(=O)C1CCC(F)(F)CC1)c1ncc(-c2ccc(-c3ccc4nc([C@@H](NC(=O)C5CCC(F)(F)CC5)C(C)(C)C)[nH]c4c3)cc2)[nH]1` [Compound B58], the “Fold-Synergistic 1a (Q30E)” value was over 100 fold.
The result for `CC(C)(C)C(NC(=O)C1C2COCC21)c1nc(-c2ccc(-c3ccc(-c4c[nH]c(C(NC(=O)C5C6COCC65)C(C)(C)C)n4)cc3)cc2)c[nH]1` [Compound L-67] reads over 100 fold.
As for `CC(C)(C)[C@H](NC(=O)C(=O)c1ccco1)c1nc(-c2ccc(-c3ccc(-c4c[nH]c([C@@H](NC(=O)C(=O)c5ccco5)C(C)(C)C)n4)cc3)cc2)c[nH]1` [Compound W-20], the figure is over 100 fold; as for `CC(C)[C@H](NC(=O)C(C)(C)F)c1ncc(-c2ccc3c(c2)CCc2cc(-c4cnc([C@@H](NC(=O)C(C)(C)F)C(C)C)[nH]4)ccc2-3)[nH]1.O=C(O)C(F)(F)F` [Compound N-75], over 100 fold; as for `COC1(C(=O)C(=O)N[C@H](c2ncc(-c3ccc(-c4ccc(-c5cnc([C@@H](NC(=O)C(=O)C6(OC)CCC(F)(F)CC6)C(C)C)[nH]5)cc4)cc3)[nH]2)C(C)C)CCC(F)(F)CC1` [Compound P-126], over 100 fold.
As for `CC(C)[C@H](NC(=O)C1CC(F)(F)C1)c1ncc(-c2ccc3c(c2)Cc2cc(-c4cnc([C@@H](NC(=O)C5CC(F)(F)C5)C(C)C)[nH]4)ccc2-3)[nH]1.O=C(O)C(F)(F)F` [Compound N-71], the figure is over 100 fold; as for `CC(C)(C(=O)N[C@H](c1ncc(-c2ccc(-c3ccc(-c4cnc([C@@H](NC(=O)C(C)(C)C5CCOCC5)C(C)(C)C)[nH]4)cc3)cc2)[nH]1)C(C)(C)C)C1CCOCC1` [Compound B98], over 100 fold.
`CC(C)[C@H](NC(=O)CC1CCCCC1)c1ncc(-c2ccc(-c3ccc(-c4cnc([C@@H](NC(=O)CC5CCCCC5)C(C)C)[nH]4)cc3)cc2)[nH]1` [Compound S-26]: the “Fold-Synergistic 1a (Q30E)” value is reported as over 100 fold.
As for `CC(C)(C)[C@H](NC(=O)Cc1ccccc1OC(F)(F)F)c1nc(-c2ccc(-c3ccc(-c4c[nH]c([C@@H](NC(=O)Cc5ccccc5OC(F)(F)F)C(C)(C)C)n4)cc3)cc2)c[nH]1` [Compound Y-73], the figure is over 100 fold.
The result for `CC(C)[C@H](NC(=O)C1CC(F)(F)C1)c1ncc(-c2ccc(-c3ccc(-c4cnc([C@@H](NC(=O)C5CC(F)(F)C5)C(C)C)[nH]4)cc3)cc2)[nH]1` [Compound P-83] reads over 100 fold; that for `CC(O)(CF)C(=O)N[C@H](c1nc(-c2ccc(-c3ccc(-c4c[nH]c([C@@H](NC(=O)C(C)(O)CF)C(C)(C)C)n4)cc3)cc2)c[nH]1)C(C)(C)C` (single isomer, unassigned) [Compound N-139C], over 100 fold; that for `CC(C)(C)C(=O)N[C@H](c1nc(-c2ccc(-c3ccc(-c4c[nH]c([C@@H](NC(=O)C(C)(C)C)C(C)(C)C)n4)cc3)cc2)c[nH]1)C(C)(C)C` [Compound N-46], over 100 fold.
As for `Cc1ccccc1C(C(=O)NC(c1nc(-c2ccc(-c3ccc(-c4c[nH]c(C(NC(=O)C(c5ccccc5C)C(C)C)C(C)(C)C)n4)cc3)cc2)c[nH]1)C(C)(C)C)C(C)C` (mixture of isomers) [Compound S-258], the figure is over 100 fold; as for `COc1cccc(C(=O)N[C@H](c2ncc(-c3ccc(-c4ccc(-c5cnc([C@@H](NC(=O)c6cccc(OC)c6)C(C)C)[nH]5)cc4)cc3)[nH]2)C(C)C)c1` [Compound S-77], over 100 fold.
As to `CC1(C)CCN(C(=O)C(=O)N2CCC(F)(F)CC2)C1c1nc(-c2ccc(-c3ccc(-c4c[nH]c(C5N(C(=O)C(=O)N6CCC(F)(F)CC6)CCC5(C)C)n4)cc3)cc2)c[nH]1` (centres unmarked) [Compound W-218], the “Fold-Synergistic 1a (Q30E)” value is given as over 10 fold.
As for `CC(C)(C)[C@H](NC(=O)c1c(F)cccc1Cl)c1nc(-c2ccc(-c3ccc(-c4c[nH]c([C@@H](NC(=O)c5c(F)cccc5Cl)C(C)(C)C)n4)cc3)cc2)c[nH]1` [Compound N-66], the figure is over 100 fold.
